Test [1] has as its target memapsin 2 (Homo sapiens, UniProt P56817). Kind of test: Inhibition of memapsin 2 beta-secretase activity (fluorogenic substrate FS-2). The test is classed as biochemical. The following applies: memapsin 2, pH 4, 37° C., 20 minutes pre-incubation; read-out: M2Ki. The procedure, abridged:
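Kinetic fluorogenic assay: hydrolysis of the MCA/DNP-labelled APP Swedish-variant peptide FS-2 monitored as fluorescence rise at 37° C, pH 4, after 20 min enzyme–compound preincubation. Relative rates fitted with a tight-binding inhibitor model.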

Test [2] has as its system Aβ production in Chinese hamster ovary cells that over-express human APP695 with the London and Swedish mutations. Kind of test: Cellular Aβ IC50 determination (Aβ40 sandwich ELISA). Conditions: Cricetulus griseus; cellular Aβ production; read-out: IC50. It is filed as cell-based. The procedure, abridged:
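Aβ40 in media quantified by sandwich ELISA, normalized to control incubations and fitted with a 4-parameter IC50 model. Compounds dosed to a final concentration near 4 μM (0.4% DMSO) on CHO cells expressing human APP695 (London and Swedish mutants) seeded at 10% confluency.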
(In general: ELISA stands for enzyme-linked immunosorbent assay.)

Each structure is given as a SMILES string. pIC50, pKi: −log10 of the molar value.

memapsin 2, sequence (P56817 46-501): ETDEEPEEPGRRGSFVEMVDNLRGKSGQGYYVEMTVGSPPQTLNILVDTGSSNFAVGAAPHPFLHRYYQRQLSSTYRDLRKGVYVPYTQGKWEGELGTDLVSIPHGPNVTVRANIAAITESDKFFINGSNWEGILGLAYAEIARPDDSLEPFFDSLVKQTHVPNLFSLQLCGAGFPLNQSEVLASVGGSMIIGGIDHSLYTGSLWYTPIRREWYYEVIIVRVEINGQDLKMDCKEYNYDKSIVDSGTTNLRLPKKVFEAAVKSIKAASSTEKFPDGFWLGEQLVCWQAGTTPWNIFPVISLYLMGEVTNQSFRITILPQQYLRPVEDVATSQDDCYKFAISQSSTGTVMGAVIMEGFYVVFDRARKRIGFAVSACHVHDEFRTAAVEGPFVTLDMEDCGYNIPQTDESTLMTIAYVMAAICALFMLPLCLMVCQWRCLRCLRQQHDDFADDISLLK

The term pIC50 denotes the negative decadic logarithm of the IC50, by convention in mol/L. With `CNc1cc(CNC[C@@H](O)[C@H](Cc2ccccc2)NC(=O)c2cccc(C(=O)N(C)Cc3nc(C)cs3)c2)cc(C(C)C)c1` [Compound 133, N1-((2S,3R)-3-hydroxy-4-(3-isopropyl-5-(methylamino)benzylamino)-1-phenylbutan-2-yl)-N3-methyl-N3-((4-methylthiazol-2-yl)methyl)isophthalamide], the pKi in test [1] was greater than 6.52. The pIC50 in test [2] is greater than 6.00.

Consider `COC(=O)c1cc(CNC[C@@H](O)[C@H](Cc2ccccc2)NC(=O)c2cccc(C(=O)N(C)Cc3nc(C)cs3)c2)cc(N(C)S(C)(=O)=O)c1` [Compound 134, methyl 3-(((2R,3S)-2-hydroxy-3-(3-(methyl((4-methylthiazol-2-yl)methyl)carbamoyl)benzamido)-4-phenylbutylamino)methyl)-5-(N-methylmethylsulfonamido)benzoate], for which the pKi in test [1] was greater than 6.52. For the same molecule, the pIC50 in test [2] is 5.30 to 6.00.

With `Cc1csc(CN(C)C(=O)c2cccc(C(=O)N[C@@H](Cc3ccccc3)[C@H](O)CNCc3cccc(C#N)c3)c2)n1` [Compound 137, N1-((2S,3R)-4-(3-cyanobenzylamino)-3-hydroxy-1-phenylbutan-2-yl)-N3-methyl-N3-((4-methylthiazol-2-yl)methyl)isophthalamide], in test [1], the pKi is greater than 6.52. Also, in test [2], the pIC50 was greater than 6.00.

Turning to `Cc1csc(CN(C)C(=O)c2cccc(C(=O)N[C@@H](Cc3ccccc3)[C@H](O)CNCc3cc(C(=O)O)cc(N(C)S(C)(=O)=O)c3)c2)n1` [Compound 139, 3-(((2R,3S)-2-hydroxy-3-(3-(methyl((4-methylthiazol-2-yl)methyl)carbamoyl)benzamido)-4-phenylbutylamino)methyl)-5-(N-methylmethylsulfonamido)benzoic acid], in test [1], the pKi was greater than 6.52. Besides, the negative logarithm of the IC50 (pIC50) in test [2] is greater than 6.00.

Turning to `COc1cccc(CNC[C@@H](O)[C@H](Cc2ccccc2)NC(=O)c2cc(C(=O)N(C)Cc3nc(C)cs3)cc(-c3ccccc3C#N)c2)c1` [Compound 140, 2′-cyano-N3-((2S,3R)-3-hydroxy-4-(3-methoxybenzylamino)-1-phenylbutan-2-yl)-N5-methyl-N5-((4-methylthiazol-2-yl)methyl)biphenyl-3,5-dicarboxamide], in test [1], the pKi was greater than 6.52. Also, the pIC50 in test [2] was greater than 6.00.

`COC(=O)c1cccc(CNC[C@@H](O)[C@H](Cc2ccccc2)NC(=O)c2cccc(C(=O)N(C)Cc3nc(C)cs3)c2)c1` [Compound 141, methyl 3-(((2R,3S)-2-hydroxy-3-(3-(methyl((4-methylthiazol-2-yl)methyl)carbamoyl)benzamido)-4-phenylbutylamino)methyl)benzoate]: the pKi in test [1] was 6.30 to 6.52. Moreover, the pIC50 in test [2] is greater than 6.00.

With `C[C@@H](NC(=O)c1cc(C(=O)N[C@@H](Cc2ccccc2)[C@H](O)CNCc2cccc(C(F)F)c2)cc(N(C)S(C)(=O)=O)c1)c1ccccc1` [Compound 142, N1-((2S,3R)-4-(3-(difluoromethyl)benzylamino)-3-hydroxy-1-phenylbutan-2-yl)-5-(N-methylmethylsulfonamido)-N3-((R)-1-phenylethyl)isophthalamide], the pKi in test [1] was greater than 6.52. Further, in test [2], the pIC50 was greater than 6.00.

As for `Cc1csc(CN(C)C(=O)c2cccc(C(=O)N[C@@H](Cc3ccccc3)[C@H](O)CNCc3cccc(C(F)F)c3)c2)n1` [Compound 143, N1-((2S,3R)-4-(3-(difluoromethyl)benzylamino)-3-hydroxy-1-phenylbutan-2-yl)-N3-methyl-N3-((4-methylthiazol-2-yl)methyl)isophthalamide], in test [1], the pKi is greater than 6.52. The pIC50 in test [2] is greater than 6.00.

Consider `C[C@@H](NC(=O)c1cc(C(=O)N[C@@H](Cc2ccccc2)[C@H](O)CNCc2cccc(C(C)(F)F)c2)cc(N(C)S(C)(=O)=O)c1)c1ccccc1` [Compound 144, N1-((2S,3R)-4-(3-(1,1-difluoroethyl)benzylamino)-3-hydroxy-1-phenylbutan-2-yl)-5-(N-methylmethylsulfonamido)-N3-((R)-1-phenylethyl)isophthalamide], for which, in test [1], the pKi was greater than 6.52. Besides, in test [2], the pIC50 is greater than 6.00.

Turning to `Cc1csc(CN(C)C(=O)c2cccc(C(=O)N[C@@H](Cc3ccccc3)[C@H](O)CNCc3cccc(C(C)(F)F)c3)c2)n1` [Compound 145, N1-((2S,3R)-4-(3-(1,1-difluoroethyl)benzylamino)-3-hydroxy-1-phenylbutan-2-yl)-N3-methyl-N3-((4-methylthiazol-2-yl)methyl)isophthalamide], the pKi in test [1] was greater than 6.52. The pIC50 in test [2] is greater than 6.00.

As to `Cc1csc(CN(C)C(=O)c2cccc(C(=O)N[C@@H](Cc3ccccc3)[C@H](O)CNCc3cc(C(C)C)cc(N(C)S(C)(=O)=O)c3)c2)n1` [Compound 146, N1-((2S,3R)-3-hydroxy-4-(3-isopropyl-5-(N-methylmethylsulfonamido)benzylamino)-1-phenylbutan-2-yl)-N3-methyl-N3-((4-methylthiazol-2-yl)methyl)isophthalamide], the pKi in test [1] is greater than 6.52. The pIC50 in test [2] was greater than 6.00.

In the case of `Cc1csc(CN(C)C(=O)c2cccc(C(=O)N[C@@H](Cc3ccccc3)[C@H](O)CNC(C)c3cncc(C(C)C)c3)c2)n1` (stereo partly drawn) [Compound 148, N1-((2S,3R)-3-hydroxy-4-(1-(5-isopropylpyridin-3-yl)ethylamino)-1-phenylbutan-2-yl)-N3-methyl-N3-((4-methylthiazol-2-yl)methyl)isophthalamide], the pKi in test [1] is greater than 6.52. Also, the pIC50 in test [2] is greater than 6.00.

As to `C[C@@H](NC(=O)c1cc(C(=O)N[C@@H](Cc2ccccc2)[C@H](O)CNCc2cccc(C#N)c2)cc(N(C)S(C)(=O)=O)c1)c1ccccc1` [Compound 149, N1-((2S,3R)-4-(3-cyanobenzylamino)-3-hydroxy-1-phenylbutan-2-yl)-5-(N-methylmethylsulfonamido)-N3-((R)-1-phenylethyl)isophthalamide], in test [1], the pKi is greater than 6.52. In addition, in test [2], the pIC50 was greater than 6.00.

On to `Cc1csc(CN(C)C(=O)c2cccc(C(=O)N[C@@H](Cc3ccccc3)[C@H](O)CNCc3cc(C(C)C)cc(S(C)(=O)=O)c3)c2)n1` [Compound 150, N1-((2S,3R)-3-hydroxy-4-(3-isopropyl-5-(methylsulfonyl)benzylamino)-1-phenylbutan-2-yl)-N3-methyl-N3-((4-methylthiazol-2-yl)methyl)isophthalamide], for which the pKi in test [1] is greater than 6.52. Also, the pIC50 in test [2] is greater than 6.00.

With `Cc1csc(CN(C)C(=O)c2cc(C(=O)N[C@@H](Cc3ccccc3)[C@H](O)CNCc3cncc(C(C)C)c3)cc(-c3ccccc3C#N)c2)n1` [Compound 154, 2′-cyano-N3-((2S,3R)-3-hydroxy-4-((5-isopropylpyridin-3-yl)methylamino)-1-phenylbutan-2-yl)-N5-methyl-N5-((4-methylthiazol-2-yl)methyl)biphenyl-3,5-dicarboxamide], the pKi in test [1] is greater than 6.52. Also, the pIC50 in test [2] is greater than 6.00.

With `Cc1csc(CN(C)C(=O)c2cccc(C(=O)N[C@@H](Cc3ccccc3)[C@H](O)CNCc3cc(C(C)C)nc(N)n3)c2)n1` [Compound 155, N1-((2S,3R)-4-((2-amino-6-isopropylpyrimidin-4-yl)methylamino)-3-hydroxy-1-phenylbutan-2-yl)-N3-methyl-N3-((4-methylthiazol-2-yl)methyl)isophthalamide], the pKi in test [1] is greater than 6.52. Besides, the pIC50 in test [2] is greater than 6.00.
